Test results published in ChEMBL document CHEMBL5724914, “Linking interpersonal differences in gut microbiota composition and drug biotransformation activity” (2024).

Key:
[1] = human gut metagenome, 24 h, 2 µM
[2] = human gut metagenome, 24 h, 2 µM; remark: listed apart in the source
[3] = (§1) The drug is tested on Z-011 corresponding to mouse gut metagenome with ENA study accession number: PRJEB37062 and ENA sample accession number: ERS12561811 for biotransformation under anaerobic condition. The drug concentrations were measured over 9 timepoints collected between 0 and 24 hours of incubation by liquid-chromatography-coupled mass spectrometry (LC–MS); details: 2 µM
[4] = as §1, with “WLS-090” for “Z-011”, “human” for “mouse”, “ERS12561753” for “ERS12561811”; details: 2 µM
[5] = as §1, with “Z-022” for “Z-011”, “ERS12561821” for “ERS12561811”; details: 2 µM
[6] = human gut metagenome, 24 h, 2 µM; remark: listed apart in the source
[7] = as §1, with “WLS-038” for “Z-011”, “human” for “mouse”, “ERS12561745” for “ERS12561811”; details: 2 µM
[8] = as §1, with “Z-029” for “Z-011”, “rat” for “mouse”, “ERS12561828” for “ERS12561811”; details: 2 µM
[9] = as §1, with “WLS-027” for “Z-011”, “human” for “mouse”, “ERS12561744” for “ERS12561811”; details: 2 µM
Note: call rule not given here.

Row | Compound | Bacterial Biotransformation [1] | Bacterial Biotransformation [2] | Bacterial Biotransformation [3] | Bacterial Biotransformation [4] | Bacterial Biotransformation [5] | Bacterial Biotransformation [6] | Bacterial Biotransformation [7] | Bacterial Biotransformation [8] | Bacterial Biotransformation [9]
1 | CN1CCC[C@@H]1CCO[C@](C)(c1ccccc1)c1ccc(Cl)cc1.O=C(O)/C=C/C(=O)O [CLEMASTINE FUMARATE] | Compound metabolized | Compound metabolized | Compound NOT metabolized | Compound NOT metabolized | Compound NOT metabolized | Compound NOT metabolized | Compound metabolized | Compound NOT metabolized | Compound metabolized
2 | CC(C)(C)NCC(O)c1cc(Cl)c(N)c(Cl)c1 (stereo unspecified) [CLENBUTEROL] | Compound NOT metabolized | Compound NOT metabolized | Compound NOT metabolized | Compound NOT metabolized | Compound NOT metabolized | Compound NOT metabolized | Compound NOT metabolized | Compound NOT metabolized | Compound NOT metabolized
3 | C[N+]12CCC(CC1)C(OC(=O)C(O)(c1ccccc1)c1ccccc1)C2.[Br-] (stereo unspecified) [CLIDINIUM BROMIDE] | Compound NOT metabolized | Compound metabolized | Compound NOT metabolized | Compound metabolized | Compound NOT metabolized | Compound NOT metabolized | Compound NOT metabolized | Compound NOT metabolized | Compound NOT metabolized
4 | Clc1cccc(Cl)c1N=C1NCCN1 [CLONIDINE] | Compound NOT metabolized | Compound metabolized | Compound metabolized | Compound metabolized | Compound NOT metabolized | Compound metabolized | Compound NOT metabolized | Compound NOT metabolized | Compound NOT metabolized
5 | COC(=O)[C@H](c1ccccc1Cl)N1CCc2sccc2C1.O=S(=O)(O)O [CLOPIDOGREL BISULFATE] | Compound metabolized | Compound metabolized | Compound metabolized | Compound metabolized | Compound metabolized | Compound metabolized | Compound metabolized | Compound NOT metabolized | Compound NOT metabolized
6 | O=P1(N(CCCl)CCCl)NCCCO1 (stereo unspecified) [CYCLOPHOSPHAMIDE ANHYDROUS] | Compound NOT metabolized | Compound metabolized | Compound NOT metabolized | Compound metabolized | Compound NOT metabolized | Compound NOT metabolized | Compound NOT metabolized | Compound NOT metabolized | Compound NOT metabolized
7 | Br.COc1ccc2c(c1)[C@]13CCCC[C@@H]1[C@H](C2)N(C)CC3.O [DEXTROMETHORPHAN HYDROBROMIDE] | Compound NOT metabolized | Compound metabolized | Compound NOT metabolized | Compound metabolized | Compound NOT metabolized | Compound metabolized | Compound NOT metabolized | Compound NOT metabolized | Compound metabolized
8 | CC(=O)Nc1ccc(OC(C)=O)cc1 [DIACETAMATE] | Compound metabolized | Compound metabolized | Compound metabolized | Compound metabolized | Compound metabolized | Compound metabolized | Compound metabolized | Compound metabolized | Compound metabolized
9 | CCN(CC)CCOC(=O)C1(C2CCCCC2)CCCCC1 [DICYCLOMINE] | Compound NOT metabolized | Compound metabolized | Compound NOT metabolized | Compound metabolized | Compound metabolized | Compound NOT metabolized | Compound NOT metabolized | Compound NOT metabolized | Compound metabolized
10 | COc1ccc([C@@H]2Sc3ccccc3N(CCN(C)C)C(=O)[C@@H]2OC(C)=O)cc1 [DILTIAZEM] | Compound NOT metabolized | Compound metabolized | Compound NOT metabolized | Compound metabolized | Compound metabolized | Compound metabolized | Compound NOT metabolized | Compound NOT metabolized | Compound metabolized
11 | OCCN(CCO)c1nc(N2CCCCC2)c2nc(N(CCO)CCO)nc(N3CCCCC3)c2n1 [DIPYRIDAMOLE] | Compound NOT metabolized | Compound metabolized | Compound NOT metabolized | Compound metabolized | Compound metabolized | Compound metabolized | Compound NOT metabolized | Compound NOT metabolized | Compound metabolized
12 | COc1cc2nc(N3CCN(C(=O)C4COc5ccccc5O4)CC3)nc(N)c2cc1OC.CS(=O)(=O)O (stereo unspecified) [DOXAZOSIN MESYLATE] | Compound NOT metabolized | Compound metabolized | Compound NOT metabolized | Compound metabolized | Compound metabolized | Compound NOT metabolized | Compound metabolized | Compound NOT metabolized | Compound metabolized
13 | CN(C)CCOC(C)(c1ccccc1)c1ccccn1.O=C(O)CCC(=O)O (stereo unspecified) [DOXYLAMINE SUCCINATE] | Compound NOT metabolized | Compound NOT metabolized | Compound NOT metabolized | Compound NOT metabolized | Compound NOT metabolized | Compound NOT metabolized | Compound NOT metabolized | Compound NOT metabolized | Compound NOT metabolized
14 | Br.CN1CCC[C@@H]1Cc1c[nH]c2ccc(CCS(=O)(=O)c3ccccc3)cc12 [ELETRIPTAN HYDROBROMIDE] | Compound NOT metabolized | Compound metabolized | Compound NOT metabolized | Compound metabolized | Compound NOT metabolized | Compound NOT metabolized | Compound NOT metabolized | Compound NOT metabolized | Compound NOT metabolized
15 | CCOc1ccc2nc(S(N)(=O)=O)sc2c1 [ETHOXZOLAMIDE] | Compound NOT metabolized | Compound metabolized | Compound NOT metabolized | Compound metabolized | Compound NOT metabolized | Compound NOT metabolized | Compound NOT metabolized | Compound NOT metabolized | Compound NOT metabolized
16 | CCc1cccc2c3c([nH]c12)C(CC)(CC(=O)O)OCC3 (stereo unspecified) [ETODOLAC] | Compound metabolized | Compound metabolized | Compound NOT metabolized | Compound metabolized | Compound NOT metabolized | Compound NOT metabolized | Compound metabolized | Compound NOT metabolized | Compound metabolized
17 | CC(=O)OCC(CCn1cnc2cnc(N)nc21)COC(C)=O [FAMCICLOVIR] | Compound metabolized | Compound metabolized | Compound metabolized | Compound metabolized | Compound NOT metabolized | Compound NOT metabolized | Compound metabolized | Compound NOT metabolized | Compound metabolized
18 | CC(C)(C)NC(=O)[C@H]1CC[C@H]2[C@@H]3CC[C@H]4NC(=O)C=C[C@]4(C)[C@H]3CC[C@]12C [FINASTERIDE] | Compound metabolized | Compound metabolized | Compound metabolized | Compound metabolized | Compound metabolized | Compound NOT metabolized | Compound metabolized | Compound NOT metabolized | Compound metabolized
19 | CC1Cc2ccccc2N1NC(=O)c1ccc(Cl)c(S(N)(=O)=O)c1 (stereo unspecified) [INDAPAMIDE] | Compound NOT metabolized | Compound NOT metabolized | Compound NOT metabolized | Compound NOT metabolized | Compound NOT metabolized | Compound NOT metabolized | Compound NOT metabolized | Compound NOT metabolized | Compound NOT metabolized
